Experimental data taken from ChEMBL document CHEMBL6177930, “2-(4-Bromobenzyl) tethered 4-amino aryl/alkyl-5,6,7,8-tetrahydrobenzo[4,5]thieno[2,3-d]pyrimidines: design, synthesis, anticancer assessment via dual topoisomerase-I/II inhibition, and in silico studies” (RSC Med Chem, 2025).

Key:
T47D = assay: Antiproliferative activity against human T47D cells assessed as inhibition of cell growth at 10 uM measured after 48 to 72 hrs by MTT assay relative to control; type: functional; conditions: time 48-72 hrs
A549 = assay: Antiproliferative activity against human A549 cells assessed as inhibition of cell growth at 10 uM measured after 48 to 72 hrs by MTT assay relative to control; type: functional; conditions: time 48-72 hrs
MDA-MB-231 = assay: Antiproliferative activity against human MDA-MB-231 cells assessed as inhibition of cell growth at 10 uM measured after 48 to 72 hrs by MTT assay relative to control; type: functional; conditions: time 48-72 hrs
[1] = Antiproliferative activity against human HCC cells assessed as inhibition of cell growth at 10 uM measured after 48 to 72 hrs by MTT assay relative to control; type: functional; conditions: time 48-72 hrs
MCF7 = assay: Antiproliferative activity against human MCF7 cells assessed as inhibition of cell growth at 10 uM measured after 48 to 72 hrs by MTT assay relative to control; type: functional; conditions: time 48-72 hrs
FaDu = assay: Antiproliferative activity against human FaDu cells assessed as inhibition of cell growth at 10 uM measured after 48 to 72 hrs by MTT assay relative to control; type: functional; conditions: time 48-72 hrs
[2] = molecular target: T1, DNA topoisomerase 1 (Homo sapiens) (UniProt P11387); assay: Inhibition of human topoisomerase-I extracted from baculovirus expression system assessed as relaxation of supercoiled DNA using SC-DNA as substrate incubated for 30 mins by EtBr staining based agarose gel electrophoresis method
T1 sequence (whole entry): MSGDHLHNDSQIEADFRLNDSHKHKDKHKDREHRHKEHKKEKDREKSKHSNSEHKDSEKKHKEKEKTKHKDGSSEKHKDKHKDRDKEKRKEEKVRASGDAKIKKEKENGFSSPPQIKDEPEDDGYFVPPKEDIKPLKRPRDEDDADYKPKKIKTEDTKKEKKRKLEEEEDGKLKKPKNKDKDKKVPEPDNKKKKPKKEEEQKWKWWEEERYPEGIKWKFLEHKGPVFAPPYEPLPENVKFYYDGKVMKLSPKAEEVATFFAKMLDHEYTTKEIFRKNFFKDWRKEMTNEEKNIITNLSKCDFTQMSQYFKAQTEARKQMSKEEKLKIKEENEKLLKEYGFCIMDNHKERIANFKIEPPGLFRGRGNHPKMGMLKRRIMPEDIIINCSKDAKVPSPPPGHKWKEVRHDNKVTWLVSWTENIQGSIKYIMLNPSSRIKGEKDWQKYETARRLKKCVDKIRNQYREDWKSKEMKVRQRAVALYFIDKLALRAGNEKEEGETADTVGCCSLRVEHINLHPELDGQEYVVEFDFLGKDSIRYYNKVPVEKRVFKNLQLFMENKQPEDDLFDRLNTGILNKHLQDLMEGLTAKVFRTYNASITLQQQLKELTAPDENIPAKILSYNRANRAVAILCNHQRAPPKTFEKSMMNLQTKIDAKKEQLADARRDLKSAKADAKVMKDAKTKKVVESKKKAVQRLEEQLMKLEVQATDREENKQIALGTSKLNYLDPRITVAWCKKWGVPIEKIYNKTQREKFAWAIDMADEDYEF

[3] = molecular target: T2, Prostaglandin G/H synthase 1 (Ovis aries) (UniProt P05979); assay: Inhibition of ovine COX-1 at 10 uM relative to control
T2 sequence (whole entry): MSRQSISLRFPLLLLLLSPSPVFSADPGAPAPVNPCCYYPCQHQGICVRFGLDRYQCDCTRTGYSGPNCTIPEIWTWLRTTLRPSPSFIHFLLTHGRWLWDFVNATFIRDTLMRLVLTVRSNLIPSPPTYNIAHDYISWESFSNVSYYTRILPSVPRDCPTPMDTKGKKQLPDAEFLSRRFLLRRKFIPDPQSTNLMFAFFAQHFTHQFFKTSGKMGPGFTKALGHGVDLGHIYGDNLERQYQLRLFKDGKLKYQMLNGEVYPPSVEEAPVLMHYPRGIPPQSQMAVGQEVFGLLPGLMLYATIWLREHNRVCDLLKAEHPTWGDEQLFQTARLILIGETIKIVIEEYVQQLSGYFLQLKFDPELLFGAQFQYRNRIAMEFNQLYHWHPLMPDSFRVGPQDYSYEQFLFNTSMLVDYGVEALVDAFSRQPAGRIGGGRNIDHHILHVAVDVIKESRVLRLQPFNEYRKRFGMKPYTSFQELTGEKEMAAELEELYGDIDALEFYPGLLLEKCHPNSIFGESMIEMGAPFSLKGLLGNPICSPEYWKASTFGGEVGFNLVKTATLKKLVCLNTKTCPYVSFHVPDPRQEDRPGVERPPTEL

[4] = molecular target: T1, DNA topoisomerase 1 (Homo sapiens); assay: Inhibition of human topoisomerase-I extracted from baculovirus expression system using SC-DNA as substrate incubated for 30 mins by EtBr staining based agarose gel electrophoresis method
[5] = molecular target: DNA topoisomerase 2-alpha (Homo sapiens) (UniProt P11388); assay: Inhibition of human topoisomerase-II alpha assessed as reduction in decatenation activity using kinetoplast DNA as substrate incubated for 30 mins by EtBr staining based agarose gel electrophoresis method
Sequence of DNA topoisomerase 2-alpha (Homo sapiens) (P11388 whole entry): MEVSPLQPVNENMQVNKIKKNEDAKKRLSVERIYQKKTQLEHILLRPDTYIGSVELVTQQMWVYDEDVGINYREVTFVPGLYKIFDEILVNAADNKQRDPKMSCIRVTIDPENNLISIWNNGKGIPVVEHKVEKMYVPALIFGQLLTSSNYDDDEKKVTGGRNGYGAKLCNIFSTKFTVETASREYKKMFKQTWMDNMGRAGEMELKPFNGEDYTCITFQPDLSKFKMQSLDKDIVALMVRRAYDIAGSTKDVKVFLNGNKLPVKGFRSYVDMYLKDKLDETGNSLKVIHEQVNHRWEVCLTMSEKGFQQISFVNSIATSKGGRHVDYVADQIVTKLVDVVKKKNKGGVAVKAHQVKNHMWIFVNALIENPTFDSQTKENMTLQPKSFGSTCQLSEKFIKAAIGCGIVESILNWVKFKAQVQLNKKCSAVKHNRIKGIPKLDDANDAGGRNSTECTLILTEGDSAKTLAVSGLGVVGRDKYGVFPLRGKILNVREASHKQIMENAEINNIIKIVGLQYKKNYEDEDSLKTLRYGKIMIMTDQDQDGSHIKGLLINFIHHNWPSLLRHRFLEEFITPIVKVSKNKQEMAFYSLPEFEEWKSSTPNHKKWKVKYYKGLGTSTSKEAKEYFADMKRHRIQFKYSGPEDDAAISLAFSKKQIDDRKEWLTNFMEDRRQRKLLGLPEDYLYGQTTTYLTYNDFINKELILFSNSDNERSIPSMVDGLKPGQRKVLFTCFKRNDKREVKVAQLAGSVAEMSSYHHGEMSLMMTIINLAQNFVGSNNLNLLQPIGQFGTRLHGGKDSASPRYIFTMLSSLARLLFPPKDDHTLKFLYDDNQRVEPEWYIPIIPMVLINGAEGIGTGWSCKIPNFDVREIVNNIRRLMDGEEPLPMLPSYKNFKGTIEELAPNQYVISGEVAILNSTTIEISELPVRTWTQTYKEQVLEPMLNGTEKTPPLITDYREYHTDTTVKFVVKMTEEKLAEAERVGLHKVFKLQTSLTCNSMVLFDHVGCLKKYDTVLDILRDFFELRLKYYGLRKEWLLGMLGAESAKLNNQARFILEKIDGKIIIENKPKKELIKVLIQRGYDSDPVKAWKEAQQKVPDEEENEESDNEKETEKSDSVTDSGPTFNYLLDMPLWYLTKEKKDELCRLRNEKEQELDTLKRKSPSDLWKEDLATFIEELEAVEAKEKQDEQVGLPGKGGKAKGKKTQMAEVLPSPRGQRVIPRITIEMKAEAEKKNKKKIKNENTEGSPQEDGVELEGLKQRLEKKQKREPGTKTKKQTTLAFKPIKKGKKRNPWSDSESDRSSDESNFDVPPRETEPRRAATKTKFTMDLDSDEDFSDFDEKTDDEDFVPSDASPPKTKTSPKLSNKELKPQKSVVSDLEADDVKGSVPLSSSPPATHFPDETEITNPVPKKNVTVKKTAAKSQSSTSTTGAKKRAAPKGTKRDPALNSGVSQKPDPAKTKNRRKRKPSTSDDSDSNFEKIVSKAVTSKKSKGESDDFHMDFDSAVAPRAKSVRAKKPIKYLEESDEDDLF

[6] = molecular target: T3, Prostaglandin G/H synthase 2 (Homo sapiens) (UniProt P35354); assay: Inhibition of human recombinant COX-2 at 10 uM relative to control
T3 sequence (whole entry): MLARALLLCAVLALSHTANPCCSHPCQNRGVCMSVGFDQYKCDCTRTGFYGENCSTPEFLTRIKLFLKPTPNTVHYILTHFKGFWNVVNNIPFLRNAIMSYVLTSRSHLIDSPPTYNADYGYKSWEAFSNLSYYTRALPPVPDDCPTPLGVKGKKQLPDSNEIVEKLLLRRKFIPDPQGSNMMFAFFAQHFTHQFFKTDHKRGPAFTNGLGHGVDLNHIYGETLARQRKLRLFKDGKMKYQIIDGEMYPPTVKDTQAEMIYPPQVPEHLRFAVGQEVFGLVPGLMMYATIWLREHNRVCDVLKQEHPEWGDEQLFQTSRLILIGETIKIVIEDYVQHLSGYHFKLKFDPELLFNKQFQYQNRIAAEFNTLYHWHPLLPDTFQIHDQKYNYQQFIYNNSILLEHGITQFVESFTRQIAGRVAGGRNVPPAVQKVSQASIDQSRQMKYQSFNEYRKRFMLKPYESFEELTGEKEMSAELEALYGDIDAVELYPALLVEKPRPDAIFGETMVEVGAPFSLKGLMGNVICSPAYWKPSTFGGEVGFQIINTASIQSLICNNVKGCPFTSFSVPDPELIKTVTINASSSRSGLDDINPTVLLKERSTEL

HEK293 = assay: Antiproliferative activity against HEK293 cells assessed as inhibition of cell growth at 10 to 25 uM measured after 48 to 72 hrs by MTT assay; type: toxicity, cell-based; conditions: human, hek293, 25 µM; dose lower 10 µM, time lower 48 hrs, dose upper 25 µM, time upper 72 hrs

Structure (SMILES) | inhibition at 10 µM (T47D) | inhibition at 10 µM (A549) | inhibition at 10 µM (MDA-MB-231) | inhibition at 10 µM [1] | inhibition at 10 µM (MCF7) | inhibition at 10 µM (FaDu) | inhibition [2] | inhibition [3] | inhibition [4] | inhibition [5] | inhibition [6] | Activity (HEK293)
Fc1cc(CNc2nc(Cc3ccc(Br)cc3)nc3sc4c(c23)CCCC4)cc(F)c1F | 3.01% | 6.63% | 2.39% | 1.57% | 8.28% | 25.8% | – | – | – | – | – | –
Brc1ccc(Cc2nc(-n3ccnc3)c3c4c(sc3n2)CCCC4)cc1 | 1.99% | 2.45% | 12.8% | 2.03% | 3.19% | 46.9% | – | – | – | – | – | –
C#Cc1cccc(Nc2ncnc3cc(OCCOC)c(OCCOC)cc23)c1 [ERLOTINIB] | 1.27% | – | 19.6% | 4.19% | 6.71% | 19.7% | – | – | – | – | – | –
Clc1ccccc1CNc1nc(Cc2ccc(Br)cc2)nc2sc3c(c12)CCCC3 | 3.69% | 2.67% | 0.1% | 1.55% | 9.51% | 18.1% | – | – | – | – | – | –
Nc1ccccc1CNc1nc(Cc2ccc(Br)cc2)nc2sc3c(c12)CCCC3 | 1.79% | 1.33% | 5.74% | 1.89% | 2.66% | 25.9% | – | – | – | – | – | –
Brc1ccc(Cc2nc(NCc3ccccn3)c3c4c(sc3n2)CCCC4)cc1 | 17.9% | 3.32% | 1.25% | 2.05% | 4.03% | 29.1% | – | – | – | – | – | –
Fc1ccc(CNc2nc(Cc3ccc(Br)cc3)nc3sc4c(c23)CCCC4)cc1 | 2.58% | 1.55% | 10.8% | 1.36% | 0.55% | 21.4% | – | – | – | – | – | –
OCCNc1nc(Cc2ccc(Br)cc2)nc2sc3c(c12)CCCC3 | 5.73% | 1.21% | 2.1% | 2% | 2.71% | 50.2% | – | – | – | – | – | –
NCCCNc1nc(Cc2ccc(Br)cc2)nc2sc3c(c12)CCCC3 | 8.24% | 8.86% | 1.12% | 8.12% | 8.28% | 54.1% | – | – | – | – | – | –
CC(C)(C)OC(=O)N1CCN(c2nc(Cc3ccc(Br)cc3)nc3sc4c(c23)CCCC4)CC1 | 3.33% | 0.29% | 38.9% | 2.01% | 15.1% | 16.6% | – | – | – | – | – | –
Brc1ccc(Cc2nc(NCc3ccccc3)c3c4c(sc3n2)CCCC4)cc1 | 11.2% | 3.12% | 4.99% | 1.79% | 0.55% | 24.3% | – | – | – | – | – | –
C=CCNc1nc(Cc2ccc(Br)cc2)nc2sc3c(c12)CCCC3 | 2.35% | 2.89% | 1.17% | 1.55% | 20.5% | 45.2% | – | – | – | – | – | –
CNc1nc(Cc2ccc(Br)cc2)nc2sc3c(c12)CCCC3 | 1.69% | 2.65% | 1.09% | 1.28% | 18.7% | 23.4% | – | – | – | – | – | –
Fc1ccccc1CNc1nc(Cc2ccc(Br)cc2)nc2sc3c(c12)CCCC3 | 2.14% | 3.45% | 6.27% | 2.55% | 19.4% | 26.2% | – | – | – | – | – | –
Brc1ccc(Cc2nc(NCCN3CCNCC3)c3c4c(sc3n2)CCCC4)cc1 | 54% | 34.2% | 1.23% | 1.24% | 19.4% | 74.7% | Active; Compound Showed Significant Inhibition Than Compound 7A | 28.5% | Active; Compound Showed Potent Inhibition Activity Than Camptothecin | Active; Compound Showed Weak Effect | 57.9% | Non-toxic
COc1ccc(CNc2nc(Cc3ccc(Br)cc3)nc3sc4c(c23)CCCC4)cc1 | 1.05% | 1.69% | 13.7% | 1.01% | 29.6% | 26.8% | – | – | – | – | – | –
CCN(CC)c1nc(Cc2ccc(Br)cc2)nc2sc3c(c12)CCCC3 | 2.88% | 2.22% | 1.91% | 1.47% | 15.7% | 34.2% | – | – | – | – | – | –
CCCNc1nc(Cc2ccc(Br)cc2)nc2sc3c(c12)CCCC3 | 17.3% | 3.63% | 3.11% | 1.37% | 3.16% | 56.2% | – | – | – | – | – | –
Brc1ccc(Cc2nc(NC3CC3)c3c4c(sc3n2)CCCC4)cc1 | 1.31% | 1.11% | 2.23% | 2.11% | 38.5% | 28.9% | – | – | – | – | – | –
Brc1ccc(Cc2nc(NC3CCCCC3)c3c4c(sc3n2)CCCC4)cc1 | 1.35% | 1.56% | 1.22% | 12.8% | 19% | 27.4% | – | – | – | – | – | –
Brc1ccc(Cc2nc(N3CCCC3)c3c4c(sc3n2)CCCC4)cc1 | 3.74% | 10.3% | 8.72% | 1.36% | 19.4% | 49.2% | – | – | – | – | – | –
